Where a name gives a salt, the structure may show the parent alone. Square brackets hold non-standard residues; d marks the D form. Peptide text beside a SMILES is read from it. * marks the point of attachment. Boc = CC(C)(C)OC(=O)*; OBn = c1ccc(CO*)cc1
Experiments:
Vero cells = format: cell-based; conditions: 48 h
Description: A non-cancer line of Vero cells was used to determine the cytotoxicity of the compound against mammalian cells. They were evaluated at a final DMSO concentration of 0.5%. The culture medium was MEM (Dutscher, Bernolsheim, France) supplemented with 10% fetal bovine serum (Fisher Scientific, Illkirch, France), 1X non-essential amino acids (Fisher Scientific, Illkirch, France), 100 U/mL, 100 µg/mL penicillin/streptomycin (Fisher Scientific, Illkirch, France), and 2 mM L-glutamine (Fisher Scientific, Illkirch, France) at 37 °C in a humidified 5% CO2 atmosphere. Vero cells (100 µL of 10^5 cells/mL per well) were plated in 96-well plates for 24 h then treated with 100 µL of compound dilutions (in duplicate) during 48 h. All molecules were tested from 5 nM to 50 µM. Each well was then examined under the microscope to detect any precipitate formation before the supernatant was removed by flicking the plate. A volume of 100 µL of 0.5 mg/mL in MEM from a stock solution at 5 mg/mL of PBS-dissolved MTT (3-(4,5-dimethylthiazol-2-yl)-2,5-diphenyltetrazolium bromide, Sigma Aldrich/Merck, Darmstadt, Germany) was then added to each well [20].
After incubation for 1 h at 37 °C and 5% CO2 the supernatant was removed and 100 µL of DMSO were added. Plates were gently shaken to dissolve formazan crystals resulting from the MTT reduction by living cells and read at 570 nm with the VICTOR Nivo plate reader (Perkin Elmer, Waltham, MA, USA). CC50 values were determined using GraphPad Prism 7 software (San Diego, CA, USA).

[1] = Homolysis kinetics of alkoxyamines by EPR (growth of nitroxide); format: physicochemical; conditions: mixture of diastereoisomers; for Homolysis rate constant kd: 0.1 mM alkoxyamine, O2 as alkyl radical scavenger; for Activation energy Ea: by Equation (2) from kd and T, A = 2.4 10^14 s^−1
Description: Preparation of alkoxyamines and reference samples. All reagents including anhydrous solvents used for the chemical synthesis were purchased from commercially available sources such as Merck, TCI, and Fluorochem, and were used without further purification. All air and/or water-sensitive reactions were carried out under an argon atmosphere with dry solvents using standard syringe-cannula/septa techniques. Routine monitoring of reactions was performed using Merck Silica gel 60 F254, aluminum-supported TLC plates; spots were visualized using UV light and ethanolic acidic para-anisaldehyde solution or ethanolic phosphomolybdic solution, followed by heating. Purifications by means of column chromatography were performed with Silica gel 60 (230–400 mesh). ^1H, ^13C, and ^19F NMR spectra were obtained in CDCl3, MeOD (with residual H2O), D2O, DMSO-d6, or C6D6 solutions on by using Bruker AC400 (400 MHz) and Bruker AC300 (300 MHz) spectrometers. High-resolution mass spectra (HRMS) have been performed using a SYNAPT G2 HDMS (Waters) mass spectrometer equipped with a pneumatically assisted atmospheric pressure ionization (API) source. The sample was ionized in positive electrospray mode under the following conditions: electrospray voltage: 2.8 kV; port voltage: 20 V; Nebulizing gas flow rate (nitrogen): 100 L/h or in negative electrospray mode under the following conditions: electrospray voltage: −2.27 kV; port voltage: −20 V; Nebulizing gas flow rate (nitrogen): 100 L/h. The mass spectra (MS) were obtained with a time-of-flight (TOF) analyzer. The exact mass measurements were carried out in triplicate with external calibration. Homolysis constants were measured by EPR on an EMX Bruker spectrometer from 10^−4 M samples in tertbutyl benzene or in a mixture of H2O-nPrOH (1:1; v:v).
Kinetic experiments. Kinetics of A1–A7 (Scheme 2) for series L and D are performed by monitoring the growth of nitroxide by Electron Paramagnetic Resonance (X-band EMX Bruker machine) in tert-butylbenzene and a water/n-PrOH (for a good solubility of the alkoxyamine) as solvents and using O2 as alkyl radical scavenger to suppress the back reaction (kc in Scheme 2) as already reported. Homolysis rate constants kd are given by Equation (1) ([nitroxide]∞ = [alkoxyamine]0 = 0.1 mM, see Table S1) and the subsequent activation energies Ea given by Equation (2). (1) lnnitroxide∞−nitroxidet/nitroxide∞=−kd·t, (2) Ea=−RTlnkd/A.

[2] = tested on: Schistosoma mansoni adult worms; assay: Viability of Schistosoma mansoni adult worms in vitro; format: cell-based, Schistosoma mansoni NMRI strain; conditions: 37 °C; for time to kill all parasites / time to reach the death of half of the population of worms: Table S1, dose at 100 μg/ml, unit not given in Table S1 (h in Table 2); for Activity/toxicity towards schistosomes (in words): adult worms; for Activity/toxicity towards schistosomes (in words) / Time to Kill 50% of Parasites / Time to Kill 100% of Parasites: 100 μg/mL; for Time to Kill 50% of Parasites / Time to Kill 100% of Parasites: adult worms in RPMI 1640/Tween 80/DMSO, observed up to 72 h, duplicate wells
Description: Experiments on the viability of Schistosoma mansoni adult worms. In vitro tests were performed on Schistosoma mansoni NMRI strains. This parasite is lab maintained on Biomphalaria glabrata (BRE strain) as intermediate mollusc host and Golden Hamster (Janvier Labs, Le Genest-Saint-Isle, France) as definitive vertebrate host. Methods, for molluscs’ and hamsters’ infection and for parasite recovery, were previously described. Adult worms were recovered by hepatic perfusion technique between 42 and 47 days post hamster exposition to parasite larvae. Worms were carefully collected and disposed in 12-well Falcon® plate containing 2 mL of RPMI 1640 (supplemented with L-glutamine and Hepes 25 mM). The plates containing a minimum of 15 worms by well were then placed in an incubator chamber at 37 °C and 5% CO2. The worms sex ratio was almost balanced in each well. The drug was first dissolved in DMSO (Sigma-Aldrich) to give a 100 mg/mL mother solution. Then the stock solution was complemented with Tween 80 and RPMI to obtain the following final ratio dilution: RPMI 1640/Tween 80/DMSO and 1000/0.95/3.8, v/v/v.
All molecules were tested at a final concentration of 100 µg/mL and 10 µg/mL. A negative control consisted in adding the same RPMI 1640/Tween 80/DMSO solution, but without any drug and a positive control consisted in adding praziquantel. All molecules and control were performed in duplicates of well. The worm viability was checked after 1, 2, 3, 4, 5, 6, 7, 8, 24, 48, and 72 h after adding the molecule.

[3] = C–ON bond homolysis in water/n-PrOH v/v 1:1, EPR, T (°C): A1L 95.1, A3L 94.5, A4L 94.6, A5L 94.0, A6L 94.8, A7L 94.3, A1D 93.5, A3D 92.6, A4D 95.0, A5D 94.6

CC(ON1C(C)(C)CCCC1(C)C)c1ccc(NC(=O)[C@@H](Cc2ccccc2)NC(=O)[C@H](NC(=O)[C@@H](Cc2ccccc2)NC(=O)OC(C)(C)C)C(C)C)cc1 (stereo partly drawn) [A3D, tert-butyl ((2R)-1-(((2R)-3-methyl-1-oxo-1-(((2R)-1-oxo-3-phenyl-1-((4-(1-((2,2,6,6-tetramethylpiperidin-1-yl)oxy)ethyl)phenyl)amino)propan-2-yl)amino)butan-2-yl)amino)-1-oxo-3-phenylpropan-2-yl)carbamate]
CC50 (Vero cells): > 50 µM
Homolysis rate constant kd ([1]; C–ON bond homolysis in t-BuPh, EPR, T (°C): A1L 128.0, A3L 125.0, A5L 130.0, A6L 125, A7L 126.5, A1D 122.5, A3D 119.8, A5D 130): 9.6 10^−4 s^−1
Homolysis rate constant kd [1, 3]: 0.45 10^−4 s^−1
Activation energy Ea ([1]; in t-BuPh): 132.2 kJ/mol
Activation energy Ea ([1]; in water/n-PrOH v/v 1:1): 131.0 kJ/mol

CC(ON1C(C)(C)CCCC1(C)C)c1ccc(NC(=O)[C@@H](Cc2ccccc2)NC(=O)[C@H](NC(=O)[C@H](N)Cc2ccccc2)C(C)C)cc1 (stereo partly drawn) [A4D, (2R)-1-(((2R)-3-methyl-1-oxo-1-(((2R)-1-oxo-3-phenyl-1-((4-(1-((2,2,6,6-tetramethylpiperidin-1-yl)oxy)ethyl)phenyl)amino)propan-2-yl)amino)butan-2-yl)amino)-1-oxo-3-phenylpropan-2-aminium trifluoroacetate]
CC50 (Vero cells): 2.6 ± 0.3 µM
Homolysis rate constant kd [1, 3]: 1.2 10^−4 s^−1
Activation energy Ea ([1]; in water/n-PrOH v/v 1:1): 128.9 kJ/mol
time to kill all parasites [2]: 7
time to reach the death of half of the population of worms [2]: 2
Activity/toxicity towards schistosomes (in words) [2]: toxic to schistosomes

CC(C)[C@@H](NC(=O)[C@@H](Cc1ccccc1)NC(=O)OC(C)(C)C)C(=O)N[C@H](Cc1ccccc1)C(=O)OCc1ccccc1 [P6D, Benzyl (tert-butoxycarbonyl)-D-phenylalanyl-D-valyl-D-phenylalaninate] (Boc-[dF]-[dV]-[dF]-OBn)
CC50 (Vero cells): 3.2 µM
time to kill all parasites [2]: 24
time to reach the death of half of the population of worms [2]: 4
Activity/toxicity towards schistosomes (in words) [2]: unexpectedly toxic

CC(C)[C@H](NC(=O)[C@H](Cc1ccccc1)NC(=O)OC(C)(C)C)C(=O)N[C@@H](Cc1ccccc1)C(=O)OCc1ccccc1 [P6L, Benzyl (tert-butoxycarbonyl)-L-phenylalanyl-L-valyl-L-phenylalaninate] (Boc-Phe-Val-Phe-OBn)
CC50 (Vero cells): > 50 µM

CC(C)[C@@H](NC(=O)[C@H](N)Cc1ccccc1)C(=O)N[C@H](Cc1ccccc1)C(=O)OCc1ccccc1 [P8D, (R)-1-(((R)-1-(((R)-1-(benzyloxy)-1-oxo-3-phenylpropan-2-yl)amino)-3-methyl-1-oxobutan-2-yl)amino)-1-oxo-3-phenylpropan-2-aminium trifluoroacetate] (H-[dF]-[dV]-[dF]-OBn)
CC50 (Vero cells): > 50 µM
time to kill all parasites [2]: 1
time to reach the death of half of the population of worms [2]: 1
Activity/toxicity towards schistosomes (in words) [2]: unexpectedly toxic

CC(C)[C@H](NC(=O)[C@@H](N)Cc1ccccc1)C(=O)N[C@@H](Cc1ccccc1)C(=O)OCc1ccccc1 [P8L, (S)-1-(((S)-1-(((S)-1-(benzyloxy)-1-oxo-3-phenylpropan-2-yl)amino)-3-methyl-1-oxobutan-2-yl)amino)-1-oxo-3-phenylpropan-2-aminium trifluoroacetate] (H-Phe-Val-Phe-OBn)
CC50 (Vero cells): > 50 µM
Time to Kill 50% of Parasites [2]: 7 h
Time to Kill 100% of Parasites [2]: 24 h
time to kill all parasites [2]: 24
time to reach the death of half of the population of worms [2]: 7
Activity/toxicity towards schistosomes (in words) [2]: unexpected toxicity

CC(C)[C@H](NC(=O)[C@H](Cc1ccccc1)NC(=O)CCC(=O)OCc1ccccc1)C(=O)N[C@@H](Cc1ccccc1)C(=O)OCc1ccccc1 [P9L, Benzyl 4-(((S)-1-(((S)-1-(((S)-1-(benzyloxy)-1-oxo-3-phenylpropan-2-yl)amino)-3-methyl-1-oxobutan-2-yl)amino)-1-oxo-3-phenylpropan-2-yl)amino)-4-oxobutanoate]
CC50 (Vero cells): > 50 µM
Time to Kill 50% of Parasites [2]: 3 h
Time to Kill 100% of Parasites [2]: 5 h
time to kill all parasites [2]: 5
time to reach the death of half of the population of worms [2]: 3
Activity/toxicity towards schistosomes (in words) [2]: unexpected toxicity

CCc1ccc(NC(=O)[C@@H](Cc2ccccc2)NC(=O)[C@H](NC(=O)[C@@H](Cc2ccccc2)NC(=O)OC(C)(C)C)C(C)C)cc1 [P21D, Tert-butyl ((R)-1-(((R)-1-(((R)-1-((4-ethylphenyl)amino)-1-oxo-3-phenylpropan-2-yl)amino)-3-methyl-1-oxobutan-2-yl)amino)-1-oxo-3-phenylpropan-2-yl)carbamate]
CC50 (Vero cells): > 50 µM
time to kill all parasites [2]: 24
time to reach the death of half of the population of worms [2]: 5
Activity/toxicity towards schistosomes (in words) [2]: unexpectedly toxic

CCc1ccc(NC(=O)[C@@H](Cc2ccccc2)NC(=O)[C@H](NC(=O)[C@H](N)Cc2ccccc2)C(C)C)cc1 [P22D, (R)-1-(((R)-1-(((R)-1-((4-ethylphenyl)amino)-1-oxo-3-phenylpropan-2-yl)amino)-3-methyl-1-oxobutan-2-yl)amino)-1-oxo-3-phenylpropan-2-aminium trifluoroacetate]
CC50 (Vero cells): 11 µM
time to kill all parasites [2]: 24
time to reach the death of half of the population of worms [2]: 4
Activity/toxicity towards schistosomes (in words) [2]: unexpectedly toxic

From publication PMC11206678, “Peptide-Alkoxyamine Drugs: An Innovative Approach to Fight Schistosomiasis: “Digging Their Graves with Their Forks”” (Pathogens, 2024)
